Results reported in patent publication US8952024B2, “Herbicidal pyrimidone derivatives” (E I du Pont de Nemours and Company, priority 2009, dated 2015).

Columns and labels:
[1] = test system: guineagrass (Panicum maximum); test: Test D pre-/postemergence plant response; format: in vivo
In short: (§1)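 Scores (0 no effect, 100 complete control) reflect visual assessment against untreated plants after 14 to 21 days. Treatments were pre- and postemergence sprays in solvent with surfactant.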

[2] = test system: naked crabgrass (Digitaria nuda); test: Test D pre-/postemergence plant response; format: in vivo
In short: as §1

[3] = test system: mallow (common mallow, Malva sylvestris); test: Test D pre-/postemergence plant response; format: in vivo
In short: as §1

[4] = test system: groundsel (common groundsel, Senecio vulgaris); test: Test D pre-/postemergence plant response; format: in vivo; details: Postemergence
In short: as §1

[5] = test system: dayflower (Virginia (VA) dayflower, Commelina virginica); test: Test D pre-/postemergence plant response; format: in vivo
In short: as §1

[6] = test system: signalgrass (broadleaf signalgrass, Brachiaria platyphylla); test: Test D pre-/postemergence plant response; format: in vivo
In short: as §1

[7] = test system: Italian ryegrass (Lolium multiflorum); test: Test D pre-/postemergence plant response; format: in vivo
In short: as §1

[8] = test system: Russian thistle (Salsola kali); test: Test D pre-/postemergence plant response; format: in vivo
In short: as §1

[9] = test system: field bindweed (Convolvulus arvensis); test: Test D pre-/postemergence plant response; format: in vivo
In short: as §1

[10] = test system: spanishneedles (Bidens bipinnata); test: Test D pre-/postemergence plant response; format: in vivo
In short: as §1

[11] = test system: bermudagrass (Cynodon dactylon); test: Test D pre-/postemergence plant response; format: in vivo
In short: as §1

[12] = test system: sandbur (southern sandbur, Cenchrus echinatus); test: Test D pre-/postemergence plant response; format: in vivo
In short: as §1

[13] = test system: black mustard (Brassica nigra); test: Test D pre-/postemergence plant response; format: in vivo
In short: as §1

[14] = test system: quackgrass (Elytrigia repens); test: Test D pre-/postemergence plant response; format: in vivo
In short: as §1

[15] = test system: Surinam grass (Brachiaria decumbens); test: Test D pre-/postemergence plant response; format: in vivo
In short: as §1

[16] = Postemergence, 16 g ai/ha, scale 0 to 100
[17] = Postemergence, 31 g ai/ha, scale 0 to 100
[18] = Postemergence, 125 g ai/ha, scale 0 to 100 (0 no effect, 100 complete control)
[19] = Postemergence, 62 g ai/ha, scale 0 to 100 (0 no effect, 100 complete control)
[20] = Preemergence, 16 g ai/ha, scale 0 to 100, 0 no effect, 100 complete control
[21] = Preemergence, 31 g ai/ha, scale 0 to 100 (0 no effect, 100 complete control)
[22] = Preemergence, 62 g ai/ha, scale 0 to 100
[23] = Preemergence, 125 g ai/ha, scale 0 to 100
[24] = 125 g ai/ha, scale 0 to 100 (0 no effect, 100 complete control)
[25] = 62 g ai/ha, scale 0 to 100 (0 no effect, 100 complete control)
[26] = Preemergence, rate not given, scale 0 to 100, 0 no effect, 100 complete control
[27] = Postemergence, 31 g ai/ha, scale 0 to 100 (0 no effect, 100 complete control)
[28] = Postemergence, 250 g ai/ha, scale 0 to 100 (0 no effect, 100 complete control)

COCCCn1c(-c2ccccc2)ncc(C(=O)C2=C(O)CCCC2=O)c1=O [Compound 81, 5-[(2-hydroxy-6-oxo-cyclohexen-1-yl)carbonyl]-3-(3-methoxypropyl)-2-phenyl-4(3H)-pyrimidinone]
121 to 122 °C: melting point

O=C1CCCC(O)=C1C(=O)c1cnc(-c2ccccc2)n(C2CCCCC2)c1=O [Compound 128, 3-cyclohexyl-5-[(2-hydroxy-6-oxo-1-cyclohexen-1-yl)carbonyl]-2-phenyl-4(3H)-pyrimidinone]
35: Plant response rating, Guineagrass [1, 18] | Plant response rating, Crabgrass, Naked [2, 16] | Plant response rating, Signalgrass [6, 18] | Plant response rating, Signalgrass [6, 19] | Plant response rating, Field Bindweed [9, 22] | Plant response rating, Spanishneedles [10, 16] | Plant response rating, Sandbur [12, 18] | Plant response rating, Surinam Grass [15, 21]
65: Plant response rating, Crabgrass, Naked [2, 17] | Plant response rating, Field Bindweed [9, 18] | Plant response rating, Field Bindweed [9, 19] | Plant response rating, Spanishneedles [10, 18] | Plant response rating, Bermudagrass [11, 22]
60: Plant response rating, Dayflower, VA [5, 19] | Plant response rating, Black Mustard [13, 20] | Plant response rating, Black Mustard [13, 21]
40: Plant response rating, Mallow [3, 18] | Plant response rating, Mallow [3, 19]
30: Plant response rating, Guineagrass [1, 17] | Plant response rating, Guineagrass [1, 19] | Plant response rating, Signalgrass [6, 17] | Plant response rating, Surinam Grass [15, 19]
95: Plant response rating, Black Mustard [13, 16] | Plant response rating, Black Mustard [13, 27] | Plant response rating, Black Mustard [13, 18] | Plant response rating, Black Mustard [13, 19] | Plant response rating, Black Mustard [13, 23]
25: Plant response rating, Dayflower, VA [5, 23] | Plant response rating, Surinam Grass [15, 17]
80: Plant response rating, Bermudagrass [11, 19] | Plant response rating, Surinam Grass [15, 26]
10: Plant response rating, Dayflower, VA [5, 22]
70: Plant response rating, Crabgrass, Naked [2, 19] | Plant response rating, Mallow [3, 21] | Plant response rating, Mallow [3, 22] | Plant response rating, Dayflower, VA [5, 18] | Plant response rating, Bermudagrass [11, 16] | Plant response rating, Bermudagrass [11, 27]
50: Plant response rating, Dayflower, VA [5, 16] | Plant response rating, Dayflower, VA [5, 17] | Plant response rating, Field Bindweed [9, 16] | Plant response rating, Field Bindweed [9, 17] | Plant response rating, Spanishneedles [10, 17] | Plant response rating, Spanishneedles [10, 19] | Plant response rating, Surinam Grass [15, 18]
98: Plant response rating, Field Bindweed [9, 23]
85: Plant response rating, Black Mustard [13, 22]
75: Plant response rating, Crabgrass, Naked [2, 18] | Plant response rating, Crabgrass, Naked [2, 23] | Plant response rating, Bermudagrass [11, 23]
90: Plant response rating, Spanishneedles [10, 26] | Plant response rating, Bermudagrass [11, 18] | Plant response rating, Surinam Grass [15, 23]
5: Plant response rating, Mallow [3, 16] | Plant response rating, Mallow [3, 17] | Plant response rating, Signalgrass [6, 23] | Plant response rating, Ryegrass, Italian [7, 18] | Plant response rating, Sandbur [12, 16] | Plant response rating, Sandbur [12, 17] | Plant response rating, Sandbur [12, 19] | Plant response rating, Quackgrass [14, 18]
0: Plant response rating, Guineagrass [1, 20] | Plant response rating, Guineagrass [1, 21] | Plant response rating, Guineagrass [1, 22] | Plant response rating, Guineagrass [1, 23] | Plant response rating, Crabgrass, Naked [2, 20] | Plant response rating, Crabgrass, Naked [2, 21] | Plant response rating, Crabgrass, Naked [2, 22] | Plant response rating, Dayflower, VA [5, 21] | Plant response rating, Signalgrass [6, 16] | Plant response rating, Signalgrass [6, 20] | Plant response rating, Signalgrass [6, 21] | Plant response rating, Ryegrass, Italian [7, 16] | Plant response rating, Ryegrass, Italian [7, 17] | Plant response rating, Ryegrass, Italian [7, 19] | Plant response rating, Ryegrass, Italian [7, 20] | Plant response rating, Ryegrass, Italian [7, 21] | Plant response rating, Ryegrass, Italian [7, 23] | Plant response rating, Ryegrass, Italian [7, 26] | Plant response rating, Russian Thistle [8, 16] | Plant response rating, Russian Thistle [8, 17] | Plant response rating, Russian Thistle [8, 21] | Plant response rating, Field Bindweed [9, 20] | Plant response rating, Field Bindweed [9, 21] | Plant response rating, Spanishneedles [10, 20] | Plant response rating, Spanishneedles [10, 21] | Plant response rating, Bermudagrass [11, 20] | Plant response rating, Bermudagrass [11, 21] | Plant response rating, Sandbur [12, 20] | Plant response rating, Sandbur [12, 21] | Plant response rating, Quackgrass [14, 16] | Plant response rating, Quackgrass [14, 17] | Plant response rating, Quackgrass [14, 19] | Plant response rating, Quackgrass [14, 20] | Plant response rating, Quackgrass [14, 21] | Plant response rating, Quackgrass [14, 23] | Plant response rating, Surinam Grass [15, 20]
100: Plant response rating, Mallow [3, 23] | Plant response rating, Groundsel ([4]; 16 g ai/ha, scale 0 to 100) | Plant response rating, Groundsel ([4]; 31 g ai/ha, scale 0 to 100) | Plant response rating, Groundsel [4, 24] | Plant response rating, Groundsel [4, 25] | Plant response rating, Russian Thistle [8, 23] | Plant response rating, Spanishneedles [10, 23]
20: Plant response rating, Guineagrass [1, 16] | Plant response rating, Russian Thistle [8, 19] | Plant response rating, Sandbur [12, 23] | Plant response rating, Sandbur [12, 26]

CCCn1c(-c2ccccc2)ncc(C(=O)C2=C(O)C3CCC(C3)C2=O)c1=O (stereo not shown) [Compound 226]
80: Plant response rating, Guineagrass [1, 18] | Plant response rating, Guineagrass [1, 28] | Plant response rating, Guineagrass [1, 19] | Plant response rating, Field Bindweed [9, 28] | Plant response rating, Spanishneedles [10, 28] | Plant response rating, Black Mustard [13, 18] | Plant response rating, Black Mustard [13, 19]
98: Plant response rating, Bermudagrass [11, 28]
35: Plant response rating, Quackgrass [14, 28]
85: Plant response rating, Black Mustard [13, 28]
70: Plant response rating, Crabgrass, Naked [2, 18] | Plant response rating, Russian Thistle [8, 28] | Plant response rating, Field Bindweed [9, 18] | Plant response rating, Field Bindweed [9, 19] | Plant response rating, Surinam Grass [15, 19]
50: Plant response rating, Mallow [3, 18] | Plant response rating, Mallow [3, 19] | Plant response rating, Dayflower, VA [5, 19]
95: Plant response rating, Groundsel [4, 24] | Plant response rating, Bermudagrass [11, 18] | Plant response rating, Bermudagrass [11, 19]
75: Plant response rating, Crabgrass, Naked [2, 28] | Plant response rating, Spanishneedles [10, 18] | Plant response rating, Spanishneedles [10, 19] | Plant response rating, Sandbur [12, 18] | Plant response rating, Sandbur [12, 28] | Plant response rating, Sandbur [12, 19]
0: Plant response rating, Ryegrass, Italian [7, 18] | Plant response rating, Ryegrass, Italian [7, 19] | Plant response rating, Quackgrass [14, 19]
15: Plant response rating, Ryegrass, Italian [7, 28]
20: Plant response rating, Quackgrass [14, 18]
100: Plant response rating, Groundsel ([4]; 250 g ai/ha, scale 0 to 100 (0 no effect, 100 complete control))
90: Plant response rating, Groundsel [4, 25] | Plant response rating, Bermudagrass [11, 27] | Plant response rating, Surinam Grass [15, 18] | Plant response rating, Surinam Grass [15, 28]
40: Plant response rating, Signalgrass [6, 19] | Plant response rating, Russian Thistle [8, 18]
65: Plant response rating, Crabgrass, Naked [2, 19] | Plant response rating, Mallow [3, 28] | Plant response rating, Dayflower, VA [5, 28] | Plant response rating, Signalgrass [6, 18] | Plant response rating, Signalgrass [6, 28] | Plant response rating, Black Mustard [13, 27]
